“Also recorded” adds a separate entry of the source.
What was measured:
[1] = tested on: RANKL expression in primary cultured osteoblasts; assay: real-time quantitative PCR of RANKL mRNA in primary cultured osteoblasts; type: cell-based, human; details: for RANKL mRNA levels (in words): osteoblasts, FIG. 2b
Experimental: (§1) Human normal cranial suture were obtained after signed informed consent during routine surgery for craniosynostosis. Osteoblasts were cultured in Dulbecco's modified Eagle medium (with 10% fetal bovine serum) as described elsewhere (De Pollack, C. et al. 1996). […] Cells were harvested at day 3. Real-time quantitative PCR using Light Cycler technology (Roche Manheim) was performed for OPG and RANKL mRNA in each sample. The experiments were performed five times. In each experiment, samples were run in triplicate. The amounts of OPG and RANKL mRNA were normalized to the amount of β-actin mRNA. Student test was used for p values determination.

[2] = tested on: OPG expression in primary cultured osteoblasts; assay: real-time quantitative PCR of OPG mRNA in primary cultured osteoblasts; type: cell-based, human; details: for OPG expression compared to control values: p<0.005; for OPG mRNA levels (in words): osteoblasts, FIG. 2b
Experimental: as §1

[3] = tested on: TXAS; details: read-out: IC50 as selective inhibitor of TXAS; cited from earlier work

Row | SMILES | RANKL expression compared to control values ([1]; Ozagrel 0.25 μM added daily during 3 days, normalized to β-actin mRNA, p<0.005) [%] | RANKL mRNA levels (in words) [1] | OPG expression compared to control values ([2]; Ozagrel 0.25 μM added daily during 3 days, normalized to β-actin mRNA) | OPG mRNA levels (in words) [2] | IC50 [3] [nM] | RANKL expression compared to control values ([1]; CTA2 5 μM added at day one, harvested day 3, p<0.005) | RANKL expression compared to control values ([1]; CTA2 15 μM added at day one, harvested day 3, p<0.03) | OPG expression compared to control values ([2]; CTA2 5 μM added at day one, harvested day 3) [%] | OPG expression compared to control values ([2]; CTA2 15 μM added at day one, harvested day 3) [%]
1 | O=C(O)/C=C/c1ccc(Cn2ccnc2)cc1 [Ozagrel] | −78 | diminution | +50% | augmentation | 11 | – | – | – | –
2 | CCCCC[C@H](O)/C=C/[C@H]1CC2CC(C2)[C@@H]1C/C=C\CCCC(=O)O [CTA2] | – | augmentation; also recorded: increased | – | diminution; also recorded: decreased | – | +94% | +471% | −40 | −53
